Source: patent US11147792B2, “Inhibitors of microbially induced amyloid” (Axial Therapeutics, Inc, priority 2017, dated 2021)
Like-named read-outs stand apart in the source and are kept apart here.

Assays:
Format in all cases: biochemical
[1] = target: T1, α-synuclein seeded by E. coli CsgA (Homo sapiens, UniProt P37840); assay: In vitro Thioflavin T assay of CsgA-seeded α-synuclein aggregation; conditions: compounds at 50 μM
T1 construct: made in house; host or cells: E. coli NEB 3016 slyD::kan (CsgA, pET11d); E. coli (α-synuclein)
Protocol: In Vitro Thioflavin T Assay to Determine the Effects of Compounds on CsgA-Seeded α-Synuclein Aggregation.
To induce over-expression of CsgA, 0.5 mM IPTG was added to cultures with an optical density at 600 nm (OD600) of 0.8-1, and induced cells were cultured at 37° C. for 1 hour prior to harvest via centrifugation. […] Buffers with imidazole were freshly prepared prior to the protein purification. Purified CsgA was passed through a 30 kDa molecular weight cut-off filter and through a desalting column. All steps of the CsgA purification in the absence of guanidine hydrochloride were conducted in rapid succession with as little delay as possible. […] The ammonium sulfate pellet was washed with an equal volume of 100 mM ammonium acetate in ethanol, pelleted via centrifugation, washed twice with ethanol, dried overnight, resuspended in 10 mM Tris pH 7.4, and passed through a 50 kDa cut-off column. The assay was conducted in 96-well black microplates with a single glass 2 mm bead per well, 40 μM ThioflavinT, 1% DMSO, 2 μM CsgA, 50 μM α-synuclein, 100 mM sodium chloride, 9.3 mM potassium phosphate pH 7.3, and compounds at 50 μM. […] The effect of compounds on CsgA-seeded α-synuclein aggregation in the assay was determined with data from 40 hours, following the plateau of the fluorescent signal in the untreated (no compound) control wells containing CsgA and α-synuclein. Fluorescence values for each compound with CsgA and α-synuclein were first adjusted by subtracting the average fluorescence of the compound in the absence of CsgA and α-synuclein.

human α-synuclein = target: T2, human α-synuclein (Homo sapiens, UniProt P37840); assay: In vitro Thioflavin T assay of α-synuclein aggregation
T2 construct: made in house; host or cells: E. coli
Protocol: In Vitro Thioflavin T Assay to Determine the Effects of Compounds on α-Synuclein Aggregation.
The ammonium sulfate pellet was washed with an equal volume of 100 mM ammonium acetate in ethanol, pelleted via centrifugation, washed twice with ethanol, dried overnight, resuspended in 10 mM Tris pH 7.4, and passed through a 50 kDa cut-off column. The assay was conducted in 96-well black microplates with a single 2 mm bead in each well, 40 μM ThioflavinT, 1% DMSO, 50 μM α-synuclein, 100 mM sodium chloride, 9.3 mM potassium phosphate pH 7.3, 4.6 mM Tris pH 7.4 (added as the solvent for α-synuclein or independently for controls lacking α-synuclein), and compounds at 1 μM or 50 μM. […] Readings were performed hourly for up to 73 hours. The effect of compounds on α-synuclein aggregation in the assay was determined with data from 40 hours, following the plateau of the fluorescent signal in the untreated (no compound) control wells containing α-synuclein. Fluorescence values for each compound with α-synuclein were first adjusted by subtracting the average fluorescence of the compound in the absence of α-synuclein.

E. coli CsgA = target: T3, E. coli CsgA (Escherichia coli, UniProt P28307); assay: In vitro ThioflavinT assay of CsgA aggregation
T3 construct: made in house; host or cells: E. coli NEB 3016 slyD::kan, pET11d
T3 sequence (P28307 23-151): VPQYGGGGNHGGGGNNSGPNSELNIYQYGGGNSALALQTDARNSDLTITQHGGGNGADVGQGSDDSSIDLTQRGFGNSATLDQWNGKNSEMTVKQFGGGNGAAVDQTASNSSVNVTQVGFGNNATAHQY
Protocol: In Vitro ThioflavinT Assay to Determine Effects of Compounds on CsgA Aggregation.
To assess the effects of compounds on aggregation of E. coli CsgA, a cell-free assay was performed using purified CsgA and Thioflavin T. In the assay, histidine-tagged CsgA was over-expressed in E. coli NEB 3016 slyD::kan cells harboring a pET11d vector containing csgA with the sequence for 6 histidine residues added to the C-terminus and without the Sec signal (amino acid 1-22) sequence. To induce over-expression of CsgA, 0.5 mM isopropyl β-D-1-thiogalactopyranoside (“IPTG”) was added to cultures with an optical density at 600 nm (OD600) of 0.8-1, and induced cells were cultured at 37° C. for 1 hour prior to harvest via centrifugation. Cells were lysed under denaturing conditions with 8 M guanidine hydrochloride in 50 mM potassium phosphate buffer pH 7.3, and CsgA was purified via immobilized-metal affinity chromatography by batch purification with Nickel-NTA agarose and a combination of low pressure and gravity flow through a disposable polypropylene column, including washes under low pressure applied manually via application of a syringe plunger to the column with 50 mM potassium phosphate buffer pH 7.3 followed by 12.5 mM imidazole in 50 mM potassium phosphate buffer pH 7.3, and elution by gravity flow with 125 mM imidazole in 50 mM potassium phosphate buffer pH 7.3. Buffers with imidazole were freshly prepared prior to the protein purification. Purified CsgA was passed through a 30 kDa molecular weight cut-off filter and passed through a desalting column. All steps of the CsgA purification in the absence of guanidine hydrochloride were conducted in rapid succession with as little delay as possible. The assay was conducted in 96-well black microplates with 40 μM ThioflavinT, 1% DMSO, CsgA at 20 μM, and compounds at 20 μM. Plates were incubated at 25° C. in a Tecan Nano F200 plate reader with excitation at 438 nm using a 439 nm filter with a bandwidth of 8 nm, and emission at 495 nm with a 490 nm filter with a bandwidth of 10 nm. During the assay, plates were shaken initially for 5 seconds and subsequently for 3 seconds prior to fluorescent readings. Readings were performed every 20 minutes for up to 24 hours. The effect of compounds on CsgA aggregation in the assay was determined with data from 18 hours, following the plateau of the fluorescent signal in the untreated (no compound) control wells containing CsgA. Fluorescence values for each compound with CsgA were first adjusted by subtracting the average fluorescence of the compound in the absence of CsgA. These adjusted values were normalized by dividing them by the average fluorescence in the no-compound (i.e., untreated) control wells containing CsgA […], and the average normalized fluorescence with the compound was expressed as a percentage of the average fluorescence observed in untreated controls.

[2] = 2 μM CsgA, 50 μM α-synuclein, ThT fluorescence at 40 hours, read-out: Inhibition of Aggregation CsgA-seeded αSyn
[3] = 2 μM CsgA, 50 μM α-synuclein, ThT fluorescence at 40 hours, read-out: Inhibition of Aggregation CsgA-seeded αSyn (compound activity range)
[4] = compounds at 50 μM, 50 μM α-synuclein, ThT fluorescence at 40 hours, read-out: Inhibition of Aggregation αSyn
[5] = compounds at 50 μM, 50 μM α-synuclein, ThT fluorescence at 40 hours, read-out: Inhibition of Aggregation αSyn (compound activity range)
[6] = read-out: Inhibition of Aggregation CsgA (compound activity range), compounds at 20 μM, CsgA at 20 μM, ThT fluorescence at 18 hours
[7] = read-out: Inhibition of Aggregation CsgA, compounds at 20 μM, CsgA at 20 μM, ThT fluorescence at 18 hours

Compound	Inhibition of Aggregation CsgA-seeded αSyn (compound activity range) ([1]; 2 μM CsgA, 50 μM α-synuclein, ThT fluorescence at 40 hours)	inhibition at 50 µM [1, 2] [%]	inhibition at 50 µM [1, 3] [%]	inhibition at 50 µM (human α-synuclein; [4]) [%]	inhibition at 50 µM (human α-synuclein; [5]) [%]	Effect on CsgA aggregation (in words) (E. coli CsgA; compounds at 20 μM)	inhibition at 20 µM (E. coli CsgA; [6]) [%]	inhibition at 20 µM (E. coli CsgA; [7]) [%]	Inhibition of Aggregation CsgA (compound activity range) (E. coli CsgA; compounds at 20 μM, CsgA at 20 μM, ThT fluorescence at 18 hours, 20 µM)	Effect on CsgA-seeded α-synuclein aggregation (in words) [1]	inhibition at 50 µM (human α-synuclein; read-out: Inhibition of Aggregation αSyn) [%]	inhibition at 50 µM (human α-synuclein; read-out: Inhibition of Aggregation αSyn (compound activity range)) [%]
CCCCCCCCCCCCOC(=O)c1cc(O)c(O)c(O)c1 [lauryl gallate, dodecyl 3,4,5-trihydroxybenzoate]	+%	24	10 to 30	33	30 to 60	did not appear to inhibit CsgA aggregation	-10 to 10	1				
COc1cc(O)ccc1O [methoxy-hydroquinone, 2-methoxybenzene-1,4-diol]		80		100	> 60		30 to 60	50	(++) to (+++)			
O=c1c(O)c(-c2ccc(O)cc2O)oc2cc(O)cc(O)c12 [morin, 2-(2,4-dihydroxyphenyl)-3,5,7-trihydroxychromen-4-one]		70		88	> 60		> 60	69				
O=C(CCc1ccc(O)cc1)c1c(O)cc(O)cc1O [phloretin, 3-(4-hydroxyphenyl)-1-(2,4,6-trihydroxyphenyl)propan-1-one]		21	10 to 30	46	30 to 60		10 to 30	18				
Cc1ccc(C(C)C)c(O)c1 [thymol, 5-methyl-2-(propan-2-yl)phenol]		9	-10 to 10			little to no effect	-10 to 10	-4		little to no effect	-21	< -10
